Test results published in patent publication US20240099214A1, “PLANT DEFENCE GENE EXPRESSION” (UPL Corporation Limited, priority 2021, published 2024).

Experiments:
[1] = test system: AY093595.1 (gene 13, PR protein); assay: qRT-PCR expression of gene 13 in tomato leaves; type: in vivo, Tomato ecotype corbarino; parameters: key: relative expression normalized to a-tubulin housekeeping gene
Method: (§1) Tomato ecotype “corbarino” reported to be susceptible to TSWV infection was used in the experiment. Plants were grown in pots in a climatic chamber with a photoperiod of 16/8 hour at 25° C.
(§2) The viral strain (TSWV PV PV-0393) was utilized in the experiment. The virus was mechanically inoculated and propagated on tomato “corbarino”. The inoculum was prepared in an ice-cooled mortar grounding 1 gr of infected tomato tissue in 10 ml of Na-phosphate buffer 0.01M. The fresh prepared inoculum was stored in ice before use. Tomato plants at BBCH16 were dusted with Carborundum 600 mesh and selected leaves were rubbed with some droplets of inoculum. After 5 min. plants were sprayed with sterile water to remove the excess of inoculum and preserve the cell turgor.
(§3) Four treatments were compared: i) Mock inoculated; ii) TSWV; iii) 0.25% Laminarin; iv) 0.25% Laminarin+TSWV. In the last treatment the virus was inoculated 24 hrs after the laminarin application.
(§4) Total RNA was extracted from systemic infected tomato leaves by using the Quick-RNA Plant Kit (Zymo Research) following the manufacturer instructions. The extractions were carried out using three plants after 12 h, 24 h, 48 h, 72 h, 7 days after inoculation. Leaves were instantly frozen in liquid nitrogen after cutting to avoid any deterioration of the sample as well as any defense reaction. The RNA concentration was quantified by measuring the absorbance at 260 nm using a Nanodrop 2000 (Thermofisher). The purity of all of the RNA samples was assessed at an absorbance ratio of OD260/280 and OD260/230, while its structural integrity was checked by agarose gel electrophoresis. Only high-quality RNA with OD 260/280 and OD 260/230>2 was used for subsequent steps. Single-stranded cDNA was synthesized from 1 μg of total RNA using an iScript™ Select cDNA Synthesis Kit and random hexamers as primers (Bio-Rad, Milan, Italy), according to the manufacturer's instructions. Three biological replicates were created from the 3 leaves collected to test 15 genes. Alpha tubulin was used as reference gene.
(§5) qPCR reactions were performed with BioRad (Applied Biosystems, Foster City, CA, USA) using SYBR R Green. Each reaction was performed in 20 μl containing 10 μl of 2× Power SYBR Green PCR Master Mix (Life Technologies), 0.2-0.3 μM primers and cDNA samples diluted 1:20. Each qPCR reaction was performed in triplicate. Reactions were run using the cycling parameter described previously (Reid et al., 2006) and the qPCR data were analyzed by the Ct method (Pfaffl, 2001). In order to analyze the qPCR data, a-tubulin gene was used as housekeeping to determine the relative expression level of the other genes analyzed in this work. For the determination of qPCR efficiency of each primer pairs, a standard curve was performed using the following cDNA dilutions: 1:4, 1:16, 1:64; 1:256 and 1:1024. Every measurement was made in triplicate. The corresponding qPCR efficiencies (E) were calculated for every primer pair with the software 7300 System SDS software (Applied Biosystems, Foster City, CA, USA) according to the equation E=(10−1/slope−1)×100 (Rutledge and Stewart, 2008).
(§6) The significance of the differences between the gene expressions levels were compared by one-way ANOVA (p=0.01) and the means were separated by Tukey post-hoc test using SPSS ver.26 ([…]).

[2] = test system: E3 Ubiquitin-protein ligase march3 (gene 2, Solyc01g079530.2); assay: qRT-PCR expression of gene 2 in tomato leaves; type: in vivo, Tomato ecotype corbarino; parameters: key: relative expression normalized to a-tubulin housekeeping gene
Method: as §1, §2, §3, §4, §5, §6

[3] = Gene_13, 12 hr, treatment Laminarin
[4] = Gene_13, 12 hr, treatment Laminarin + virus
[5] = Gene_13, 24 hr, treatment Laminarin
[6] = Gene_13, 24 hr, treatment Laminarin + virus
[7] = Gene_13, 48 hr, treatment Laminarin
[8] = Gene_13, 48 hr, treatment Laminarin + virus
[9] = Gene_13, 72 hr, treatment Laminarin
[10] = Gene_13, 72 hr, treatment Laminarin + virus

laminarin
RQ1 [1, 3]: 0.9025 | RQ2 [1, 3]: 11.021 | RQ3 [1, 3]: 12.323 | RQ mean [1, 3]: 10.790 | RQ1 [1, 4]: 13.339 | RQ2 [1, 4]: 10.934 | RQ3 [1, 4]: 11.013 | RQ mean [1, 4]: 11.762 | RQ1 [1, 5]: 13.750 | RQ2 [1, 5]: 14.763 | RQ3 [1, 5]: 13.300 | RQ mean [1, 5]: 13.938 | RQ1 [1, 6]: 13.085 | RQ2 [1, 6]: 11.438 | RQ3 [1, 6]: 12.395 | RQ mean [1, 6]: 12.306 | RQ1 [1, 7]: 31.999 | RQ2 [1, 7]: 13.498 | RQ3 [1, 7]: 29.839 | RQ mean [1, 7]: 25.112 | RQ1 [1, 8]: 25.291 | RQ2 [1, 8]: 0.8970 | RQ3 [1, 8]: 28.993 | RQ mean [1, 8]: 21.085 | RQ1 [1, 9]: 45.838 | RQ2 [1, 9]: 96.757 | RQ3 [1, 9]: 93.370 | RQ mean [1, 9]: 78.655 | RQ1 [1, 10]: 53.674 | RQ2 [1, 10]: 42.556 | RQ3 [1, 10]: 49.901 | RQ mean [1, 10]: 48.710 | RQ1 ([2]; 12 hr, Laminarin + virus): 13.056 | RQ2 ([2]; 12 hr, Laminarin + virus): 23.403 | RQ3 ([2]; 12 hr, Laminarin + virus): 12.079 | RQ mean ([2]; 12 hr, Laminarin + virus): 16.179 | RQ1 ([2]; 12 hr, Laminarin alone): 13.140 | RQ2 ([2]; 12 hr, Laminarin alone): 19.586 | RQ3 ([2]; 12 hr, Laminarin alone): 10.706 | RQ mean ([2]; 12 hr, Laminarin alone): 14.477 | RQ1 ([2]; 24 hr, Laminarin + virus): 11.700 | RQ2 ([2]; 24 hr, Laminarin + virus): 13.596 | RQ3 ([2]; 24 hr, Laminarin + virus): 12.341 | RQ mean ([2]; 24 hr, Laminarin + virus): 12.546 | RQ1 ([2]; 24 hr, Laminarin alone): 13.152 | RQ2 ([2]; 24 hr, Laminarin alone): 13.329 | RQ3 ([2]; 24 hr, Laminarin alone): 14.033 | RQ mean ([2]; 24 hr, Laminarin alone): 13.505 | RQ1 ([2]; 48 hr, Laminarin + virus): 24.083 | RQ2 ([2]; 48 hr, Laminarin + virus): 18.519 | RQ3 ([2]; 48 hr, Laminarin + virus): 21.352 | RQ mean ([2]; 48 hr, Laminarin + virus): 21.318 | RQ1 ([2]; 48 hr, Laminarin alone): 27.467 | RQ2 ([2]; 48 hr, Laminarin alone): 17.321 | RQ3 ([2]; 48 hr, Laminarin alone): 23.298 | RQ mean ([2]; 48 hr, Laminarin alone): 22.695 | RQ1 ([2]; 72 hr, Laminarin + virus): 28.726 | RQ2 ([2]; 72 hr, Laminarin + virus): 29.558 | RQ3 ([2]; 72 hr, Laminarin + virus): 37.336 | RQ mean ([2]; 72 hr, Laminarin + virus): 31.873 | RQ1 ([2]; 72 hr, Laminarin alone): 29.447 | RQ2 ([2]; 72 hr, Laminarin alone): 23.000 | RQ3 ([2]; 72 hr, Laminarin alone): 53.007 | RQ mean ([2]; 72 hr, Laminarin alone): 35.151
